Data from patent US9783527B2, “Indazole ureas and method of use” (AbbVie Inc., priority 2014, dated 2017).

How the values were obtained:
human Nav1.7 = human Nav1.7 (Homo sapiens (Human), UniProt Q15858); test: FRET-based membrane potential assay, recombinant human sodium channel Nav1.7; type: cell-based; conditions: HEK293 cells stably expressing recombinant human Nav1.7; depolarization with veratridine (EC80) + scorpion venom
In short: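 IC50 derived by four-parameter Hill fit of percent inhibition of depolarization, measured as peak F440-480/F565-625 ratio over baseline. Stable human Nav1.7 HEK293 cells, dye-loaded with CC2-DMPE and DiSBAC2(3)/VABSC-1 at room temperature, received compound 3 min ahead of veratridine (EC80) plus scorpion venom.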

human Nav1.8 = human Nav1.8 (Homo sapiens (Human), UniProt Q9Y5Y9); test: FRET-based membrane potential assay, recombinant human sodium channel Nav1.8; type: cell-based; conditions: HEK293 cells stably expressing recombinant human Nav1.8; depolarization with veratridine (EC80) + scorpion venom
human Nav1.8, sequence (Q9Y5Y9 whole entry): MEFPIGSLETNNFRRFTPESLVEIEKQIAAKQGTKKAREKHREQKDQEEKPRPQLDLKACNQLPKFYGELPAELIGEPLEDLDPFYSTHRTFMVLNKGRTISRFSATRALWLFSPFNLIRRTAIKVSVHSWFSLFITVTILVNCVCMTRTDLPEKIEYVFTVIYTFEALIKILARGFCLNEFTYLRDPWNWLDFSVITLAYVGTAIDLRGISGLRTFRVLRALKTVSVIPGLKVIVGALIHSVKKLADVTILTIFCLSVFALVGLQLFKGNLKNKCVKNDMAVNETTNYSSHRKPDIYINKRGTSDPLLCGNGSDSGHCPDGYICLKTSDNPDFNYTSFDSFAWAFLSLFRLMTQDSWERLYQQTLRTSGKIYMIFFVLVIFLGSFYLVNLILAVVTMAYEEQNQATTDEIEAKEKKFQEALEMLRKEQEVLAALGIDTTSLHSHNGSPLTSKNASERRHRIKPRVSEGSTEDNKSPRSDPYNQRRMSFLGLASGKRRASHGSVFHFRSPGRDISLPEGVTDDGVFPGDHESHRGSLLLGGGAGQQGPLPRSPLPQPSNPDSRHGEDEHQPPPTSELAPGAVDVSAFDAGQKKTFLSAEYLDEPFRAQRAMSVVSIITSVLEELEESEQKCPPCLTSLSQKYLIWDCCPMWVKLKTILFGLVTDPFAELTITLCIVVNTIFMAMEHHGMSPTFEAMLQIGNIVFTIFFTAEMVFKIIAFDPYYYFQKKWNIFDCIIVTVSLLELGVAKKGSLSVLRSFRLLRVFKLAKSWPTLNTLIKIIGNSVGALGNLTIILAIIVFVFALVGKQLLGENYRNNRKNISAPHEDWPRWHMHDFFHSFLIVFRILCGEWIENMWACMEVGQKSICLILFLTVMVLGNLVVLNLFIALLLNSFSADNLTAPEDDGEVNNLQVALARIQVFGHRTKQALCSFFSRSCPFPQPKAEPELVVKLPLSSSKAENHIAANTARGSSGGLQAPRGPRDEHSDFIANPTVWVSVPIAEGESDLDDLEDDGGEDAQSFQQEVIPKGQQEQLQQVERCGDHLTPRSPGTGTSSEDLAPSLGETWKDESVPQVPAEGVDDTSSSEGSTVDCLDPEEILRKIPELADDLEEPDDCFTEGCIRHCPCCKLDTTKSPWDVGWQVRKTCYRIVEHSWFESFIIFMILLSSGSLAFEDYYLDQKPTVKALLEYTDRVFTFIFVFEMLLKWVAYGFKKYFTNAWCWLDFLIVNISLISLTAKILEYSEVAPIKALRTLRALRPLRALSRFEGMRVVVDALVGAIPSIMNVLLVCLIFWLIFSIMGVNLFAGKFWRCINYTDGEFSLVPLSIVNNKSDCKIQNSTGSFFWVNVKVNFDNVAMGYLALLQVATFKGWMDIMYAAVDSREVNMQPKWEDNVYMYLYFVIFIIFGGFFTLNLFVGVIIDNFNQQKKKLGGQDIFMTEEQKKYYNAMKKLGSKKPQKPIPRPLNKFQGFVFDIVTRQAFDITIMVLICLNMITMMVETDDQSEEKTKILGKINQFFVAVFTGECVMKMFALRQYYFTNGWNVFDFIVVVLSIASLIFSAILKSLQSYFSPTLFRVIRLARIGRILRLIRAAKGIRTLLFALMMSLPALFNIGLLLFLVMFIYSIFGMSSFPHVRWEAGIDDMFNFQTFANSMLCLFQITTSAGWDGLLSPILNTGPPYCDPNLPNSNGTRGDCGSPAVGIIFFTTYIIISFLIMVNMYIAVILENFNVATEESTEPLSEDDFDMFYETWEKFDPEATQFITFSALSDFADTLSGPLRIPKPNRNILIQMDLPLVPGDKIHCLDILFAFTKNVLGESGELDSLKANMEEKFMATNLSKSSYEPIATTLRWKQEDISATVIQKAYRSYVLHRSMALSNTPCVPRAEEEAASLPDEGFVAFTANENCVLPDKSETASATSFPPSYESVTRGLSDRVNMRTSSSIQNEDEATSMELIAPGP
In short: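 HEK293 cells stably expressing Nav1.8 were loaded with CC2-DMPE/DiSBAC2(3) FRET voltage dyes. Compounds were added 3 min before depolarization with EC80 veratridine plus scorpion venom. The F440-480/F565-625 ratio was read on FLIPR; IC50 came from four-parameter Hill fits.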

human Nav1.7, sequence (Q15858 whole entry): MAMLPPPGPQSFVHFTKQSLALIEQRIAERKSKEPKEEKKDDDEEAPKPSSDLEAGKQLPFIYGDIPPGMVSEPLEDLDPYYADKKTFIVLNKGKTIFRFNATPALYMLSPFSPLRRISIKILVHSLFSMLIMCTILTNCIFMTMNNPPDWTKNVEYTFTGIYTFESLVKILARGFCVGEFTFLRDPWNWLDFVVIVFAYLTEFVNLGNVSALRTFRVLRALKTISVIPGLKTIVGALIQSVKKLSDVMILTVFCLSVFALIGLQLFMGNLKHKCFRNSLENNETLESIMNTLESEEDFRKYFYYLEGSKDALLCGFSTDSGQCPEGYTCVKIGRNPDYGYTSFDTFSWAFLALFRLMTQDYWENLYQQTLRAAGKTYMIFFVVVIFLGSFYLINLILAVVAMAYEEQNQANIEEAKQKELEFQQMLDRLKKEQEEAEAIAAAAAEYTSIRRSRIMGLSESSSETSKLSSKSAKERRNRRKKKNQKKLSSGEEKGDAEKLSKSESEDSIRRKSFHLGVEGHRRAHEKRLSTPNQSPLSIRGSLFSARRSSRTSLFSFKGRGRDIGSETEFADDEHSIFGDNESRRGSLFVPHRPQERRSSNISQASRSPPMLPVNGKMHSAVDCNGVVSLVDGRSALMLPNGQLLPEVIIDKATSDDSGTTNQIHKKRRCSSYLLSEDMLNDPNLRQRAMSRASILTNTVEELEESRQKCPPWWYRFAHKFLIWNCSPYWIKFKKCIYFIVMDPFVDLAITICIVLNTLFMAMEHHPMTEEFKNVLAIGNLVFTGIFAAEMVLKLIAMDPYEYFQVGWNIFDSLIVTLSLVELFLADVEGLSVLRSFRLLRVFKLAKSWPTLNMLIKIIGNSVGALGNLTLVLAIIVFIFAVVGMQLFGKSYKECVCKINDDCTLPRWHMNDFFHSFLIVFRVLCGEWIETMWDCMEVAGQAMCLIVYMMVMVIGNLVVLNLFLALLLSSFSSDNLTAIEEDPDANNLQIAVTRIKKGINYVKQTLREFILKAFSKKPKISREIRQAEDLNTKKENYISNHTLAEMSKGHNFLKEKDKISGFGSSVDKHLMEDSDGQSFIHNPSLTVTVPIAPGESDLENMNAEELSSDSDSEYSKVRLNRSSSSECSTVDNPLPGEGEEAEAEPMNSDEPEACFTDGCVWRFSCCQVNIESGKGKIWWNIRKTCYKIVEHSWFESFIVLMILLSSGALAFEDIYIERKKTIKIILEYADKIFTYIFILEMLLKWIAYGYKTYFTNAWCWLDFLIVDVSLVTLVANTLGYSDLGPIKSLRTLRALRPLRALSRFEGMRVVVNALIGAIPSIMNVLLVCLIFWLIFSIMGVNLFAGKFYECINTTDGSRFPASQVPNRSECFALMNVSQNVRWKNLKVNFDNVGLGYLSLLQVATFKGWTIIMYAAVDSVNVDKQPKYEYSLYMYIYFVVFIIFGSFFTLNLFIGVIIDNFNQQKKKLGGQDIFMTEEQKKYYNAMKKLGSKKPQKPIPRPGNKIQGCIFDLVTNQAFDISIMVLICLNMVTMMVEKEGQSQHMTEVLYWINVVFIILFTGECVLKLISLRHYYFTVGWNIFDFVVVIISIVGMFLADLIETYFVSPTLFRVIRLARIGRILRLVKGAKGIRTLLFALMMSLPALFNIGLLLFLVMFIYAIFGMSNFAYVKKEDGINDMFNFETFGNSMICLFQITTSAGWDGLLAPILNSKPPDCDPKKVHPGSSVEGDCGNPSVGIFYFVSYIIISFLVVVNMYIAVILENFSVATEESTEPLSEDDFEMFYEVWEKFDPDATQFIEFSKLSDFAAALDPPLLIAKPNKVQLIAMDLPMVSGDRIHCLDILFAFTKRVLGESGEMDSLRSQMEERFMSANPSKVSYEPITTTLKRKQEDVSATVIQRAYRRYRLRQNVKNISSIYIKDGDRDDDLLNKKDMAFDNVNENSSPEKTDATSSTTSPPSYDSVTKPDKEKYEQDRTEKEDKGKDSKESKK

## O=C(CN1CCN(c2cccc3c2cnn3-c2ccccc2F)C1=O)N1C[C@H]2CC[C@@H](C1)O2 [Example 301, 1-[1-(2-fluorophenyl)-1H-indazol-4-yl]-3-{2-[(1R,5S)-8-oxa-3-azabicyclo[3.2.1]oct-3-yl]-2-oxoethyl}imidazolidin-2-one]
Human Nav1.7
  IC50: 3.16 µM
Human Nav1.8
  IC50: 1.56 µM

## O=C(CN1CCN(c2cccc3c2cnn3-c2cc(Cl)cc(Cl)c2)C1=O)N1CC[C@H](F)C1 [Example 348, 1-[1-(3,5-dichlorophenyl)-1H-indazol-4-yl]-3-{2-[(3S)-3-fluoropyrrolidin-1-yl]-2-oxoethyl}imidazolidin-2-one]
Human Nav1.7
  IC50: 13.4 µM
Human Nav1.8
  IC50: 3.26 µM

## CO[C@H]1CCCC[C@@H]1N1CCN(c2cccc3c2cnn3-c2ccccc2F)C1=O [Example 279, 1-[1-(2-fluorophenyl)-1H-indazol-4-yl]-3-[(1S,2S)-2-methoxycyclohexyl]imidazolidin-2-one]
Human Nav1.7
  IC50: 1.86 µM
Human Nav1.8
  IC50: 5.64 µM

## CCNC(=O)CN1CCN(c2cccc3c2cnn3-c2ccccc2F)C1=O [Example 315, N-ethyl-2-{3-[1-(2-fluorophenyl)-1H-indazol-4-yl]-2-oxoimidazolidin-1-yl}acetamide]
Human Nav1.7
  IC50: 2.96 µM
Human Nav1.8
  IC50: 3.56 µM

## CC1CN(C(=O)CN2CCN(c3cccc4c3cnn4-c3ccccc3F)C2=O)C1 [Example 352, 1-[1-(2-fluorophenyl)-1H-indazol-4-yl]-3-[2-(3-methylazetidin-1-yl)-2-oxoethyl]imidazolidin-2-one]
Human Nav1.7
  IC50: 1.51 µM
Human Nav1.8
  IC50: 2.58 µM

## O=C1N(c2cccc3c2cnn3-c2ccccc2F)CCN1C1CN(S(=O)(=O)CC(F)(F)F)C1 [Example 284, 1-[1-(2-fluorophenyl)-1H-indazol-4-yl]-3-{1-[(2,2,2-trifluoroethyl)sulfonyl]azetidin-3-yl}imidazolidin-2-one]
Human Nav1.7
  IC50: 2.43 µM
Human Nav1.8
  IC50: 1.19 µM

## O=C(CN1CCN(c2cccc3c2cnn3-c2ccccc2F)C1=O)NC1CCC(F)(F)C1 (centres unmarked) [Example 341, N-(3,3-difluorocyclopentyl)-2-{3-[1-(2-fluorophenyl)-1H-indazol-4-yl]-2-oxoimidazolidin-1-yl}acetamide]
Human Nav1.7
  IC50: 2.9 µM
Human Nav1.8
  IC50: 0.991 µM

## O=C1N(c2cccc3c2cnn3-c2ccccc2F)CCN1C1CN(S(=O)(=O)CC2CC2)C1 [Example 283, 1-{1-[(cyclopropylmethyl)sulfonyl]azetidin-3-yl}-3-[1-(2-fluorophenyl)-1H-indazol-4-yl]imidazolidin-2-one]
Human Nav1.7
  IC50: 2.55 µM
Human Nav1.8
  IC50: 2.21 µM

## O=C(CN1CCN(c2cccc3c2cnn3-c2ccccc2F)C1=O)N1CCOCC1 [Example 293, 1-[1-(2-fluorophenyl)-1H-indazol-4-yl]-3-[2-(morpholin-4-yl)-2-oxoethyl]imidazolidin-2-one]
Human Nav1.7
  IC50: 3.67 µM
Human Nav1.8
  IC50: 17.6 µM

## O=C(/C=C\N1CCN(c2cccc3c2cnn3-c2ccccc2F)C1=O)N1CC[C@H](F)C1 [Example 314, 1-[1-(2-fluorophenyl)-1H-indazol-4-yl]-3-{(1Z)-3-[(3S)-3-fluoropyrrolidin-1-yl]-3-oxoprop-1-en-1-yl}imidazolidin-2-one]
Human Nav1.7
  IC50: 3.25 µM
Human Nav1.8
  IC50: 0.912 µM

## CN(C(=O)CN1CCN(c2cccc3c2cnn3-c2ccccc2F)C1=O)C1CCC1 [Example 351, N-cyclobutyl-2-{3-[1-(2-fluorophenyl)-1H-indazol-4-yl]-2-oxoimidazolidin-1-yl}-N-methylacetamide]
Human Nav1.7
  IC50: 3.48 µM
Human Nav1.8
  IC50: 1.85 µM

## O=C(CN1CCN(c2cccc3c2cnn3-c2ccccc2F)C1=O)N1CC(O)C1 [Example 291, 1-[1-(2-fluorophenyl)-1H-indazol-4-yl]-3-[2-(3-hydroxyazetidin-1-yl)-2-oxoethyl]imidazolidin-2-one]
Human Nav1.7
  IC50: 5.9 µM
Human Nav1.8
  IC50: 13.1 µM

## O=C(CN1CCN(c2cccc3c2cnn3-c2cccc(OC(F)(F)F)c2)C1=O)N1CC[C@H](F)C1 [Example 88, 1-{2-[(3S)-3-fluoropyrrolidin-1-yl]-2-oxoethyl}-3-{1-[3-(trifluoromethoxy)phenyl]-1H-indazol-4-yl}imidazolidin-2-one]
Human Nav1.7
  IC50: 0.351 µM
Human Nav1.8
  IC50: 1.37 µM
